# Assay results as given in patent US20200197409A1, “HEPATITIS B VIRUS SURFACE ANTIGEN INHIBITOR” (FUJIAN COSUNTER PHARMACEUTICAL CO., LTD., priority 2017, published 2020).
# How the values were obtained:
# [1] = target: T1, CYP2C9 (Homo sapiens, UniProt P11712); assay: Inhibition of cytochrome P450 isoenzyme in human liver microsomes; assay type: in vitro ADME
# T1 construct: from tissue; host or cells: human liver microsomes
# Protocol: (§1) The inhibitory effect of the test compound on different subtypes of human cytochrome P450 isoenzyme was determined. Working solutions of the test compound, standard inhibitor (100×final concentration) and a mixed substrate were prepared. Microsomes frozen in a −80° C. refrigerator were thawed. 2 μL of test compound and the standard inhibitor solution were added into the corresponding wells, while 2 μL of the corresponding solvent was added into the non-inhibitor control well (NIC) and the blank control well (Blank). 20 μL of the mixed substrate solution was added into the corresponding wells except for the Blank well (20 μL of PB was added into the Blank well). Human liver microsomes solution was prepared (it was put back to the refrigerator immediately after use and the date was marked) and 158 μL of human liver microsomes solution were added into all of the wells immediately. The sample plate was pre-incubated under a 37° C. water bath, during which coenzyme factor (NADPH) solution was prepared immediately. After 10 minutes, 20 μL of coenzyme factor (NADPH) solution was added into all of the wells. After the sample plate was shaken evenly, it was incubated under a 37° C. water bath for 10 minutes. 400 μL of cold acetonitrile solution (the internal standard was 200 ng/mL Tolbutamide and Labetalol) was added to terminate the reaction at the corresponding time. After the sample plate was well-mixed, it was centrifuged at 4,000 rpm for 20 minutes to precipitate the protein. 200 μL of the supernatant was collected and added to 100 μL of water, and subjected to LC/MS/MS measurement after being shaken evenly.
# [2] = target: T2, CYP2D6 (Homo sapiens, UniProt P10635); assay: as above; assay type: in vitro ADME
# T2 construct: from tissue; host or cells: human liver microsomes
# T2 sequence (P10635 whole entry): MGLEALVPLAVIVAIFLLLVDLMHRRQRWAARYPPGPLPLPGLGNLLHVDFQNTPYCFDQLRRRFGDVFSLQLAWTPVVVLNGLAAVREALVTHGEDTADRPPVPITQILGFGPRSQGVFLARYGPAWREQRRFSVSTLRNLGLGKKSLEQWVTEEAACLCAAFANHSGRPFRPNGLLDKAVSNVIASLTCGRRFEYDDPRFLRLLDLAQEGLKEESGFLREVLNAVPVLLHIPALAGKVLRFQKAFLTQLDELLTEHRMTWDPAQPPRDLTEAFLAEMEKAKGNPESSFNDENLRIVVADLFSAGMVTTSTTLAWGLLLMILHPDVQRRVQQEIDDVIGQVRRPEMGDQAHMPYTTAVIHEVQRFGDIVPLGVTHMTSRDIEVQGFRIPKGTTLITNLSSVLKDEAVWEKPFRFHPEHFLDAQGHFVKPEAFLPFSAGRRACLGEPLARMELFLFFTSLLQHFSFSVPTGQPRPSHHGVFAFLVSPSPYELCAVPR
# Protocol: as §1
# [3] = target: T3, CYP1A2 (Homo sapiens, UniProt P05177); assay: as above; assay type: in vitro ADME
# T3 construct: from tissue; host or cells: human liver microsomes
# T3 sequence (P05177 1-516): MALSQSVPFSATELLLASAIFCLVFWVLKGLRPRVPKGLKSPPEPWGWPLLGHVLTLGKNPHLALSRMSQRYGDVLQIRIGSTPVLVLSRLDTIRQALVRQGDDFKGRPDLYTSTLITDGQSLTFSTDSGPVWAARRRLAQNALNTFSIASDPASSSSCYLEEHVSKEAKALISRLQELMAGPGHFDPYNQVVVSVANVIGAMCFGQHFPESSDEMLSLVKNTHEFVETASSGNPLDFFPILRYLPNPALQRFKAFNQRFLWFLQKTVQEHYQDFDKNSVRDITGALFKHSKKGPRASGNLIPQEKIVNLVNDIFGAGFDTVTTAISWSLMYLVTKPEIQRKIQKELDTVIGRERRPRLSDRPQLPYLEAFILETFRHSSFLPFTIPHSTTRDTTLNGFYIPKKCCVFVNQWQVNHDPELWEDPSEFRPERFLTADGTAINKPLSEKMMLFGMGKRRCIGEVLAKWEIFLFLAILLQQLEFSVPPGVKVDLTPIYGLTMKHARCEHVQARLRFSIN
# Protocol: as §1
# [4] = tested on: HBV; assay: Anti-HBV activity on the hepatitis B virus mouse model (AAV-HBV); assay type: in vivo, C57BL/6 mice; conditions: for HBsAg content in the plasma of the mice: PO
# Protocol: The AAV vector-mediated HBV infected mouse model is a fast and efficient HBV model. Using the high hepatotropism of the AAV vector, the recombinant adeno-associated type 8 virus carrying 1.3 copies of the HBV genome (rAAV8-1.3HBV) is injected into the tail vein of mice, which can efficiently introduce the carried 1.3 copy HBV genome into hepatocytes. Due to the characteristics of the AAV viral vector, the vector mediated by it can express for a long time. The AAV/HBV model can continuously replicate HBV DNA and express HBsAg and HBeAg in the liver of the mice.
# The anti-HBV efficacy of the test compound in vivo was evaluated by determining the content of HBsAg in the serum of the mice after treatment with the test compound on AAV/HBV mouse mode.
# C57BL/6 mice, 10% HP-f-CD as vehicle, reference compound TDF (Tenofovir), test compound, recombinant virus rAAVS-1.3HBV, main reagents of the experiment including QIAamp96 DNA kit and TaqMan® Universal PCR Master Mix, Hepatitis B Virus Surface Antigen Detection Kit, instruments including: centrifuge (Beckman Allegra X-15R), tissue grinder (QIAGEN-Tissue lyser II) and spectrophotometer (Thermo-NANODROP 1000).
# a) All mice were orally administered on the 28th day after the virus injection, and the day was set as day 0. Submaxillary blood of all mice was collected for serum collection before administration. The mice were administered once a day for four weeks.
# b) Submaxillary blood of all mice was collected for serum collection twice a week, the volume of the blood collected each time was approximately 100 μL.
# c) On the 28th day, all mice were euthanized and the blood was collected from the heart for serum collection.
# The content of HBsAg in the serum of the mice was determined by ELISA. The experimental procedure refers to the specification of HBsAg ELISA kit.
# a) The anti-HBV activity of the test compound on AAV/HBV mice model was evaluated by determining the content of HBsAg in the plasma of the mice.
# T1 sequence (P11712 whole entry): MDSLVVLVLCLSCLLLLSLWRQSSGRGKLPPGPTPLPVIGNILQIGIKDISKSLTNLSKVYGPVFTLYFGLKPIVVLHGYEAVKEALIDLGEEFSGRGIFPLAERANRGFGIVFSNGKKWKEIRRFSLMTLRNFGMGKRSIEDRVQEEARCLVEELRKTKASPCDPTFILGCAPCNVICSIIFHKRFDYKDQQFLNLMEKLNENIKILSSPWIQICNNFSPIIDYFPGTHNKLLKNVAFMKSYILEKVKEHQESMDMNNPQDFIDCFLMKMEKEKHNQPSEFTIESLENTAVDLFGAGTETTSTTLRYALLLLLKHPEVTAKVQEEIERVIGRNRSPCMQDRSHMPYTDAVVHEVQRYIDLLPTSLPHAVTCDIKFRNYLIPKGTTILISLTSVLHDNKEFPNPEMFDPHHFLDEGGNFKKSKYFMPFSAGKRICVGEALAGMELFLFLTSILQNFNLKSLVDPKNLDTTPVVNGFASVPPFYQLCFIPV
compound,measurement,setting,value
COCCCOc1cc2c(cc1OC)-c1cc(=O)c(C(=O)O)cn1[C@H](C(C)(C)C)CO2 [Embodiment 6],IC50,[1],> 50 µM
same,IC50,[2],> 50 µM
same,IC50,[3],> 50 µM
same,effect on the content of HBsAg on the AAV/HBV mouse model (in words),"[4]; 3, 10, 30 mg/kg PO once a day for four weeks",significantly reduce
same,HBsAg content in the plasma of the mice,"[4]; day 4, 3 mg/kg",3.68 IU/mL
same,HBsAg content in the plasma of the mice,"[4]; day 4, 10 mg/kg",3.56 IU/mL
same,HBsAg content in the plasma of the mice,"[4]; day 4, 30 mg/kg",3.38 IU/mL
same,HBsAg content in the plasma of the mice,"[4]; day 7, 3 mg/kg",3.70 IU/mL
same,HBsAg content in the plasma of the mice,"[4]; day 7, 10 mg/kg",3.69 IU/mL
same,HBsAg content in the plasma of the mice,"[4]; day 7, 30 mg/kg",3.44 IU/mL
same,HBsAg content in the plasma of the mice,"[4]; day 11, 3 mg/kg",3.76 IU/mL
same,HBsAg content in the plasma of the mice,"[4]; day 11, 10 mg/kg",3.92 IU/mL
same,HBsAg content in the plasma of the mice,"[4]; day 11, 30 mg/kg",3.64 IU/mL
same,HBsAg content in the plasma of the mice,"[4]; day 14, 3 mg/kg",3.70 IU/mL
same,HBsAg content in the plasma of the mice,"[4]; day 14, 10 mg/kg",3.61 IU/mL
same,HBsAg content in the plasma of the mice,"[4]; day 14, 30 mg/kg",3.40 IU/mL
same,HBsAg content in the plasma of the mice,"[4]; day 18, 3 mg/kg",3.85 IU/mL
same,HBsAg content in the plasma of the mice,"[4]; day 18, 10 mg/kg",3.90 IU/mL
same,HBsAg content in the plasma of the mice,"[4]; day 18, 30 mg/kg",3.55 IU/mL
same,HBsAg content in the plasma of the mice,"[4]; day 21, 3 mg/kg",3.78 IU/mL
same,HBsAg content in the plasma of the mice,"[4]; day 21, 10 mg/kg",3.75 IU/mL
same,HBsAg content in the plasma of the mice,"[4]; day 21, 30 mg/kg",3.46 IU/mL
same,HBsAg content in the plasma of the mice,"[4]; day 25, 3 mg/kg",3.76 IU/mL
same,HBsAg content in the plasma of the mice,"[4]; day 25, 10 mg/kg",3.83 IU/mL
same,HBsAg content in the plasma of the mice,"[4]; day 25, 30 mg/kg",3.37 IU/mL
same,HBsAg content in the plasma of the mice,"[4]; day 28, 3 mg/kg",3.96 IU/mL
same,HBsAg content in the plasma of the mice,"[4]; day 28, 10 mg/kg",3.87 IU/mL
same,HBsAg content in the plasma of the mice,"[4]; day 28, 30 mg/kg",3.53 IU/mL
same,HBsAg content in the plasma of the mice,"[4]; day −1, 3 mg/kg",4.54 IU/mL
same,HBsAg content in the plasma of the mice,"[4]; day −1, 10 mg/kg",4.51 IU/mL
same,HBsAg content in the plasma of the mice,"[4]; day −1, 30 mg/kg",4.48 IU/mL
same,tolerance of the mice during the course of treatment,[4]; once a day for four weeks,good tolerance
same,changes of the body weight of the mice,"[4]; once a day for four weeks, FIG. 3",better than RG7834
